Literature values in patent US20060030547A1, “Antineoplastic combinations” (Wyeth, priority 2001, published 2006).

Assays:
[1] = tested on: histologically diverse tumor cells; settings: in vitro, background statement
orthotopic glioma = settings: nude mice, background statement
[2] = tested on: human glioblastoma cell line; settings: in vitro, background statement

Question: What does the source list for `CO[C@H]1C[C@@H]2CC[C@@H](C)[C@@](O)(O2)C(=O)C(=O)N2CCCC[C@H]2C(=O)O[C@H]([C@H](C)C[C@@H]2CC[C@@H](OC(=O)C(C)(CO)CO)[C@H](OC)C2)CC(=O)[C@H](C)/C=C(\C)[C@@H](O)[C@@H](OC)C(=O)[C@H](C)C[C@H](C)/C=C/C=C/C=C/1C` [CCI-779, Rapamycin 42-ester with 3-hydroxy-2-(hydroxymethyl)-2-methylpropionic acid]?
Answer: cell cycle effect [1]: arrested cells in the G1 phase of the cell cycle; activity in orthotopic glioma model (orthotopic glioma): active; suppression of growth factor (platelet-derived)-induced stimulation [2]: markedly suppressed
